The values below come from patent publication US12310975B2, “Modulators of BCL6 proteolysis and associated methods of use” (Arvinas Operations, Inc., priority 2019, dated 2025).

Structures are written as SMILES.

The experiment concerns the target BCL6 (Homo sapiens (Human), UniProt P41182). Kind of experiment: Immunofluorescence high content imaging of BCL6 degradation in T47D cells. Particulars: class symbols A-D, read-out: EC50 (nM)*. It is filed as cell-based. Summed up:
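BCL6 loss was quantified by high-content imaging (10×, 4 fields/well) after PFA fixation and anti-BCL6/Alexa-488 staining with Hoechst nuclear and CellMask counterstains. Compounds were applied for 3 days to T47D breast cancer cells in RPMI-10% FBS, 11 points, 3-fold steps, top 0.1 or 1 μM.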
Consider `CNC(=O)COc1cc2cc(Nc3nc(N4CCC(OCCOCCOCCOCCOCCOCC(=O)N[C@H](C(=O)N5C[C@H](O)C[C@H]5C(=O)NCc5ccc(-c6scnc6C)cc5)C(C)(C)C)CC4)ncc3Cl)ccc2n(C)c1=O` [compound 82, (2S,4R)-1-((S)-2-(tert-butyl)-20-((1-(5-chloro-4-((1-methyl-3-(2-(methylamino)-2-oxoethoxy)-2-oxo-1,2-dihydroquinolin-6-yl)amino)pyrimidin-2-yl)piperidin-4-yl)oxy)-4-oxo-6,9,12,15,18-pentaoxa-3-azaicosanoyl)-4-hydroxy-N-(4-(4-methylthiazol-5-yl)benzyl)pyrrolidine-2-carboxamide], for which the DC50 was 50 to 100 nM.

For `CNC(=O)COc1cc2cc(Nc3nc(N4CCC(OCCOCCOCCOCCOCCOCCOCC(=O)N[C@H](C(=O)N5C[C@H](O)C[C@H]5C(=O)NCc5ccc(-c6scnc6C)cc5)C(C)(C)C)CC4)ncc3Cl)ccc2n(C)c1=O` [compound 83, (2S,4R)-1-((S)-2-(tert-butyl)-23-((1-(5-chloro-4-((1-methyl-3-(2-(methylamino)-2-oxoethoxy)-2-oxo-1,2-dihydroquinolin-6-yl)amino)pyrimidin-2-yl)piperidin-4-yl)oxy)-4-oxo-6,9,12,15,18,21-hexaoxa-3-azatricosanoyl)-4-hydroxy-N-(4-(4-methylthiazol-5-yl)benzyl)pyrrolidine-2-carboxamide], the DC50 fell in the range of 50 to 100 nM.

`CNC(=O)COc1cc2cc(Nc3nc(N4CCC(OCCOCCOCCOCCOCCOc5ccc6c(c5)CN(C5(C)CCC(=O)NC5=O)C6=O)CC4)ncc3Cl)ccc2n(C)c1=O` (centres unmarked) [compound 84, 2-((6-((5-chloro-2-(4-((14-((2-(3-methyl-2,6-dioxopiperidin-3-yl)-1-oxoisoindolin-5-yl)oxy)-3,6,9,12-tetraoxatetradecyl)oxy)piperidin-1-yl)pyrimidin-4-yl)amino)-1-methyl-2-oxo-1,2-dihydroquinolin-3-yl)oxy)-N-methylacetamide]: the DC50 was in the range of 10 to 50 nM.

In the case of `CN1C(=O)CCc2cc(Nc3cc(N4CCC(CN(C)[C@H]5C[C@H](Oc6ccc7c(c6)C(=O)N(C6CCC(=O)NC6=O)C7=O)C5)CC4)c([N+](=O)[O-])cc3Cl)ccc21` (some centres unmarked) [compound 85, 5-((1r,3r)-3-(((1-(4-chloro-5-((1-methyl-2-oxo-1,2,3,4-tetrahydroquinolin-6-yl)amino)-2-nitrophenyl)piperidin-4-yl)methyl)(methyl)amino)cyclobutoxy)-2-(2,6-dioxopiperidin-3-yl)isoindoline-1,3-dione], the DC50 is more than 100 nM.

Regarding `CNC(=O)COc1cc2cc(Nc3nc(N4CCC(OCCOCC(=O)N[C@H](C(=O)N5C[C@H](O)C[C@H]5C(=O)NCc5ccc(-c6scnc6C)cc5)C(C)(C)C)CC4)ncc3Cl)ccc2n(C)c1=O` [compound 86, (2S,4R)-1-((S)-2-(2-(2-((1-(5-chloro-4-((1-methyl-3-(2-(methylamino)-2-oxoethoxy)-2-oxo-1,2-dihydroquinolin-6-yl)amino)pyrimidin-2-yl)piperidin-4-yl)oxy)ethoxy)acetamido)-3,3-dimethylbutanoyl)-4-hydroxy-N-(4-(4-methylthiazol-5-yl)benzyl)pyrrolidine-2-carboxamide], the DC50 lay within 50 to 100 nM.

With `CNC(=O)COc1cc2cc(Nc3nc(N4CCC(OCCOCCOCCOCCOCCOc5ccc6c(c5)CN(C5CCC(=O)N(C)C5=O)C6=O)CC4)ncc3Cl)ccc2n(C)c1=O` (centres unmarked) [compound 87, 2-((6-((5-chloro-2-(4-((14-((2-(1-methyl-2,6-dioxopiperidin-3-yl)-1-oxoisoindolin-5-yl)oxy)-3,6,9,12-tetraoxatetradecyl)oxy)piperidin-1-yl)pyrimidin-4-yl)amino)-1-methyl-2-oxo-1,2-dihydroquinolin-3-yl)oxy)-N-methylacetamide], the DC50 fell in the range of 50 to 100 nM.

On to `CNC(=O)COc1cc2cc(Nc3nc(N4CCC(c5cccc(OCCOCCOCCOCCOc6ccc7c(c6)CN(C6CCC(=O)NC6=O)C7=O)c5)CC4)ncc3Cl)ccc2n(C)c1=O` (centres unmarked) [compound 88, 2-((6-((5-chloro-2-(4-(3-(2-(2-(2-(2-((2-(2,6-dioxopiperidin-3-yl)-1-oxoisoindolin-5-yl)oxy)ethoxy)ethoxy)ethoxy)ethoxy)phenyl)piperidin-1-yl)pyrimidin-4-yl)amino)-1-methyl-2-oxo-1,2-dihydroquinolin-3-yl)oxy)-N-methylacetamide], for which the DC50 was 10 to 50 nM.

In the case of `CNC(=O)COc1cc2cc(Nc3nc(N4CCC(c5ccc(OCCCOCCOCCOc6ccc7c(c6)CN(C6CCC(=O)NC6=O)C7=O)cc5)CC4)ncc3Cl)ccc2n(C)c1=O` (centres unmarked) [compound 89, 2-((6-((5-chloro-2-(4-(4-(3-(2-(2-((2-(2,6-dioxopiperidin-3-yl)-1-oxoisoindolin-5-yl)oxy)ethoxy)ethoxy)propoxy)phenyl)piperidin-1-yl)pyrimidin-4-yl)amino)-1-methyl-2-oxo-1,2-dihydroquinolin-3-yl)oxy)-N-methylacetamide], the DC50 was more than 100 nM.

On to `CNC(=O)COc1cc2cc(Nc3nc(N4CCC(c5ccccc5OCCCOCCOCCOCCOc5ccc6c(c5)CN(C5CCC(=O)NC5=O)C6=O)CC4)ncc3Cl)ccc2n(C)c1=O` (centres unmarked) [compound 90, 2-((6-((5-chloro-2-(4-(2-(3-(2-(2-(2-((2-(2,6-dioxopiperidin-3-yl)-1-oxoisoindolin-5-yl)oxy)ethoxy)ethoxy)ethoxy)propoxy)phenyl)piperidin-1-yl)pyrimidin-4-yl)amino)-1-methyl-2-oxo-1,2-dihydroquinolin-3-yl)oxy)-N-methylacetamide], for which the DC50 was more than 100 nM.

For the molecule `O=C1CCC(N2C(=O)c3ccc(N4CCN(CC5CCN(c6cc(Nc7ccc8c(c7)CCC(=O)N8)c(Cl)cc6[N+](=O)[O-])CC5)CC4)cc3C2=O)C(=O)N1` (centres unmarked) [compound 92, 5-(4-((1-(4-chloro-2-nitro-5-((2-oxo-1,2,3,4-tetrahydroquinolin-6-yl)amino)phenyl)piperidin-4-yl)methyl)piperazin-1-yl)-2-(2,6-dioxopiperidin-3-yl)isoindoline-1,3-dione], the DC50 is more than 100 nM.

In the case of `CNC(=O)COc1cc2cc(Nc3nc(N4CCC(OCCOCCOCCOCCCOc5ccccc5-c5ccc6c(c5)CN(C5CCC(=O)NC5=O)C6=O)CC4)ncc3Cl)ccc2n(C)c1=O` (centres unmarked) [compound 93, 2-((6-((5-chloro-2-(4-(2-(2-(2-(3-(2-(2-(2,6-dioxopiperidin-3-yl)-1-oxoisoindolin-5-yl)phenoxy)propoxy)ethoxy)ethoxy)ethoxy)piperidin-1-yl)pyrimidin-4-yl)amino)-1-methyl-2-oxo-1,2-dihydroquinolin-3-yl)oxy)-N-methylacetamide], the DC50 was more than 100 nM.

In the case of `CNC(=O)COc1cc2cc(Nc3nc(N4CCC(OCCOCCOCCCCOc5ccc(-c6ccc7c(c6)CN(C6CCC(=O)NC6=O)C7=O)cc5)CC4)ncc3Cl)ccc2n(C)c1=O` (centres unmarked) [compound 94, 2-((6-((5-chloro-2-(4-(2-(2-(4-(4-(2-(2,6-dioxopiperidin-3-yl)-1-oxoisoindolin-5-yl)phenoxy)butoxy)ethoxy)ethoxy)piperidin-1-yl)pyrimidin-4-yl)amino)-1-methyl-2-oxo-1,2-dihydroquinolin-3-yl)oxy)-N-methylacetamide], the DC50 is more than 100 nM.

In the case of `CNC(=O)COc1cc2cc(Nc3nc(N4CCC(Oc5cccc(OCCCCOCCOCCOc6ccc7c(c6)CN(C6CCC(=O)NC6=O)C7=O)c5)CC4)ncc3Cl)ccc2n(C)c1=O` (centres unmarked) [compound 95, 2-((6-((5-chloro-2-(4-(3-(4-(2-(2-((2-(2,6-dioxopiperidin-3-yl)-1-oxoisoindolin-5-yl)oxy)ethoxy)ethoxy)butoxy)phenoxy)piperidin-1-yl)pyrimidin-4-yl)amino)-1-methyl-2-oxo-1,2-dihydroquinolin-3-yl)oxy)-N-methylacetamide], the DC50 was more than 100 nM.

With `CNC(=O)COc1cc2cc(Nc3nc(N4CCC(Oc5ccc(OCCCOCCOCCOc6ccc7c(c6)CN(C6CCC(=O)NC6=O)C7=O)cc5)CC4)ncc3Cl)ccc2n(C)c1=O` (centres unmarked) [compound 96, 2-((6-((5-chloro-2-(4-(4-(3-(2-(2-((2-(2,6-dioxopiperidin-3-yl)-1-oxoisoindolin-5-yl)oxy)ethoxy)ethoxy)propoxy)phenoxy)piperidin-1-yl)pyrimidin-4-yl)amino)-1-methyl-2-oxo-1,2-dihydroquinolin-3-yl)oxy)-N-methylacetamide], the DC50 was more than 100 nM.

With `CNC(=O)COc1cc2cc(Nc3nc(N4CCC(OCc5cccc(COCCOCCOCCOc6ccc7c(c6)CN(C6CCC(=O)NC6=O)C7=O)c5)CC4)ncc3Cl)ccc2n(C)c1=O` (centres unmarked) [compound 97, 2-((6-((5-chloro-2-(4-((3-((2-(2-(2-((2-(2,6-dioxopiperidin-3-yl)-1-oxoisoindolin-5-yl)oxy)ethoxy)ethoxy)ethoxy)methyl)benzyl)oxy)piperidin-1-yl)pyrimidin-4-yl)amino)-1-methyl-2-oxo-1,2-dihydroquinolin-3-yl)oxy)-N-methylacetamide], the DC50 fell in the range of 50 to 100 nM.

As for `CC(=O)COc1cc2cc(Nc3nc(N4CCC(OCCOCCOCCOCCOCCOc5ccc6c(c5)CN(C5CCC(=O)NC5=O)C6=O)CC4)ncc3Cl)ccc2n(C)c1=O` (centres unmarked) [compound 98, 3-(5-((14-((1-(5-chloro-4-((1-methyl-2-oxo-3-(2-oxopropoxy)-1,2-dihydroquinolin-6-yl)amino)pyrimidin-2-yl)piperidin-4-yl)oxy)-3,6,9,12-tetraoxatetradecyl)oxy)-1-oxoisoindolin-2-yl)piperidine-2,6-dione], the DC50 was 10 to 50 nM.

For the molecule `CN(C)C(=O)COc1cc2cc(Nc3nc(N4CCC(OCCOCCOCCOCCOCCOc5ccc6c(c5)CN(C5CCC(=O)NC5=O)C6=O)CC4)ncc3Cl)ccc2n(C)c1=O` (centres unmarked) [compound 99, 2-((6-((5-chloro-2-(4-((14-((2-(2,6-dioxopiperidin-3-yl)-1-oxoisoindolin-5-yl)oxy)-3,6,9,12-tetraoxatetradecyl)oxy)piperidin-1-yl)pyrimidin-4-yl)amino)-1-methyl-2-oxo-1,2-dihydroquinolin-3-yl)oxy)-N,N-dimethylacetamide], the DC50 was more than 100 nM.
